These results are taken from patent US20070010671A1, “Novel quinazoline derivatives and methods of treatment related to the use thereof” (priority 2003, published 2007).

Some results are limits rather than exact numbers.

The first assay deals with MCH receptor (Homo sapiens, UniProt Q99705). Description: High throughput functional screening FLIPR/FDSS6000: inhibition of MCH-evoked intracellular Ca2+ changes. Particulars: class by percent of control at 10^-7 M or IC50. The format is cell-based. The essentials: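 Antagonism was measured as inhibition of calcium responses to 50 nM MCH, monitored 290 s at ex 488/em 530 nm on FLIPR or FDSS6000. Beforehand, cells bearing a constitutively active MCH receptor received Fluo4-AM (4 μM, 1 h, 37 °C) with probenecid, and test compound for 3 min.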
Turning to `CN(C)c1nc(N[C@H]2CC[C@@H](CNC(=S)NCc3ccc4c(c3)OCO4)CC2)nc2ccccc12` [compound 604], the class is recorded as 2 (Class 2: The value of percent of control at 10^−7 M was from 40% to 60% or the value of IC50 was from 50 nM to 200 nM.). Same read-out and setting: with `COc1cccc(NC(=S)NC[C@H]2CC[C@@H](Nc3nc(N(C)C)c4ccccc4n3)CC2)c1` [compound 652] the figure was 3 (Class 3: The value of percent of control at 10^−7 M was more than 60% or the value of IC50 was more than 200 nM.); with `CSc1cccc(NC(=S)N[C@H]2CC[C@@H](Nc3nc(N(C)C)c4ccccc4n3)CC2)c1` [compound 257], 3 (Class 3: The value of percent of control at 10^−7 M was more than 60% or the value of IC50 was more than 200 nM.). Take `CN(C)c1nc(N[C@H]2CC[C@@H](NC(=S)NCc3ccc(Cl)cc3Cl)CC2)nc2ccccc12` [compound 294]: the class is on record as 3 (Class 3: The value of percent of control at 10^−7 M was more than 60% or the value of IC50 was more than 200 nM.). On the same count and under the same terms, with `Cc1ccc(CNC(=S)NC[C@H]2CC[C@@H](Nc3nc(N(C)C)c4ccccc4n3)CC2)cc1` [compound 704] the figure was 3 (Class 3: The value of percent of control at 10^−7 M was more than 60% or the value of IC50 was more than 200 nM.); with `Cc1cccc(C(C)(C)C)c1NC(=O)NC[C@H]1CC[C@@H](Nc2nc(N(C)C)c3ccccc3n2)CC1` [compound 515, N-(2-tert-butyl-6-methylphenyl)-N′-[(cis-4-{[4-(dimethylamino)quinazolin-2-yl]amino}cyclohexyl)methyl]urea], 1 (Class 1: The value of percent of control at 10^−7 M was less than 40% or the value of IC50 was less than 50 nM.); with `CC(NC(=O)NC[C@H]1CC[C@@H](Nc2nc(N(C)C)c3ccccc3n2)CC1)c1ccc(Br)cc1` (relative stereo) [compound 575], 3 (Class 3: The value of percent of control at 10^−7 M was more than 60% or the value of IC50 was more than 200 nM.). Same read-out and setting: with `CN(C)c1nc(N[C@H]2CC[C@@H](CNC(=S)Nc3ccc(OC(F)F)cc3)CC2)nc2ccccc12` [compound 653] the figure was 3 (Class 3: The value of percent of control at 10^−7 M was more than 60% or the value of IC50 was more than 200 nM.). On the same count and under the same terms, for `CN(C)c1nc(N[C@H]2CC[C@@H](CNC(=S)Nc3ccc4c(c3)OCCO4)CC2)nc2ccccc12` [compound 789] the value was 3 (Class 3: The value of percent of control at 10^−7 M was more than 60% or the value of IC50 was more than 200 nM.); for `CCOC(=O)[C@H](Cc1ccccc1)NC(=O)N[C@H]1CC[C@@H](Nc2nc(N(C)C)c3ccccc3n2)CC1` (relative stereo) [compound 336, ethyl N-{[(cis-4-{[4-(dimethylamino)quinazolin-2-yl]amino}cyclohexyl)amino]carbonyl}phenylalaninate], 1 (Class 1: The value of percent of control at 10^−7 M was less than 40% or the value of IC50 was less than 50 nM.); for `COc1ccc(CNC(=S)NC[C@H]2CC[C@@H](Nc3nc(N(C)C)c4ccccc4n3)CC2)cc1OC` [compound 728], 3 (Class 3: The value of percent of control at 10^−7 M was more than 60% or the value of IC50 was more than 200 nM.).

For the compound `CCOc1ccc(NC(=S)NC[C@H]2CC[C@@H](Nc3nc(N(C)C)c4ccccc4n3)CC2)cc1` [compound 596], the class is recorded as 3 (Class 3: The value of percent of control at 10^−7 M was more than 60% or the value of IC50 was more than 200 nM.).

Regarding `CN(C)c1nc(N[C@H]2CC[C@@H](CNC(=S)NC3CCCC3)CC2)nc2ccccc12` [compound 586], the class is recorded as 3 (Class 3: The value of percent of control at 10^−7 M was more than 60% or the value of IC50 was more than 200 nM.). The same measure, in the same setting: for `CN(C)c1nc(N[C@H]2CC[C@@H](CNC(=S)Nc3ccc(Cl)cc3C(F)(F)F)CC2)nc2ccccc12` [compound 737] the value was 3 (Class 3: The value of percent of control at 10^−7 M was more than 60% or the value of IC50 was more than 200 nM.); for `CCc1ccc(NC(=S)NC[C@H]2CC[C@@H](Nc3nc(N(C)C)c4ccccc4n3)CC2)cc1` [compound 629], 3 (Class 3: The value of percent of control at 10^−7 M was more than 60% or the value of IC50 was more than 200 nM.).

For the compound `Cc1onc(-c2ccccc2)c1NC(=S)N[C@H]1CC[C@@H](Nc2nc(N(C)C)c3ccccc3n2)CC1` [compound 402, N-(cis-4-{[4-(dimethylamino)quinazolin-2-yl]amino}cyclohexyl)-N′-(5-methyl-3-phenylisoxazol-4-yl)thiourea], the class is listed as 1 (Class 1: The value of percent of control at 10^−7 M was less than 40% or the value of IC50 was less than 50 nM.).

With `CCc1cccc(CC)c1NC(=S)NC[C@H]1CC[C@@H](Nc2nc(N(C)C)c3ccccc3n2)CC1` [compound 674, N-(2,6-diethylphenyl)-N′-[(cis-4-{[4-(dimethylamino)quinazolin-2-yl]amino}cyclohexyl)methyl]thiourea], the class is on record as 1 (Class 1: The value of percent of control at 10^−7 M was less than 40% or the value of IC50 was less than 50 nM.). Take `CCc1ccc(NC(=O)NC[C@H]2CC[C@@H](Nc3nc(N(C)C)c4ccccc4n3)CC2)cc1` [compound 432, N-[(cis-4-{[4-(dimethylamino)quinazolin-2-yl]amino}cyclohexyl)methyl]-N′-(4-ethylphenyl)urea]: the class is reported as 2 (Class 2: The value of percent of control at 10^−7 M was from 40% to 60% or the value of IC50 was from 50 nM to 200 nM.).

In the case of `Cc1ccc(CNC(=O)NC[C@H]2CC[C@@H](Nc3nc(N(C)C)c4ccccc4n3)CC2)cc1` [compound 559], the class is 3 (Class 3: The value of percent of control at 10^−7 M was more than 60% or the value of IC50 was more than 200 nM.). Still for that read-out and setting: for `CCOC(=O)CNC(=O)NC[C@H]1CC[C@@H](Nc2nc(N(C)C)c3ccccc3n2)CC1` [compound 429] the value was 3 (Class 3: The value of percent of control at 10^−7 M was more than 60% or the value of IC50 was more than 200 nM.).

As to `COc1ccc(NC(=O)N[C@H]2CC[C@@H](Nc3nc(N(C)C)c4ccccc4n3)CC2)cc1OC1CCCC1` [compound 342, N-[3-(cyclopentyloxy)-4-methoxyphenyl]-N′-(cis-4-{[4-(dimethylamino)quinazolin-2-yl]amino}cyclohexyl)urea], the class is on record as 1 (Class 1: The value of percent of control at 10^−7 M was less than 40% or the value of IC50 was less than 50 nM.). On the same count and under the same terms, with `CN(C)c1nc(N[C@H]2CC[C@@H](CNC(=S)Nc3cccc(C(F)(F)F)c3)CC2)nc2ccccc12` [compound 618] the figure was 3 (Class 3: The value of percent of control at 10^−7 M was more than 60% or the value of IC50 was more than 200 nM.); with `Cc1cccc(Cl)c1NC(=O)NC[C@H]1CC[C@@H](Nc2nc(N(C)C)c3ccccc3n2)CC1` [compound 489], 1 (Class 1: The value of percent of control at 10^−7 M was less than 40% or the value of IC50 was less than 50 nM.); with `COc1ccc(NC(=O)NC[C@H]2CC[C@@H](Nc3nc(N(C)C)c4ccccc4n3)CC2)cc1Cl` [compound 530], 3 (Class 3: The value of percent of control at 10^−7 M was more than 60% or the value of IC50 was more than 200 nM.).

Staying with this assay, now noted: class by percent of control at 10^-7 M or by IC50; read-out: class.
Turning to `COc1ccc(NC(=O)N[C@H]2CC[C@@H](Nc3nc(N(C)C)c4ccccc4n3)CC2)cc1OC` [compound 124, N-(3,4-dimethoxyphenyl)-N′-(cis-4-{[4-(dimethylamino)quinazolin-2-yl]amino}cyclohexyl)urea], the IC50 is below 50 nM.

As to `CCOC(=O)c1ccc(NC(=O)N[C@H]2CC[C@@H](Nc3nc(N(C)C)c4ccccc4n3)CC2)cc1` [compound 30, ethyl 4-({[(cis-4-{[4-(dimethylamino)quinazolin-2-yl]amino}cyclohexyl)amino]carbonyl}amino)benzoate], the IC50 fell in the range of 50 to 200 nM. On the same count and under the same terms, for `CN(C)c1nc(N[C@H]2CC[C@@H](NC(=O)Nc3ccc(Cl)c(C(F)(F)F)c3)CC2)nc2ccccc12` [compound 148] the value was above 200 nM. The same measure, in the same setting: with `CN(C)c1nc(N[C@H]2CC[C@@H](NC(=O)Nc3ccc4ccccc4c3)CC2)nc2ccccc12` [compound 112] the figure was above 200 nM; with `CCN(CC)c1ccc(NC(=S)NC[C@H]2CC[C@@H](Nc3nc(N(C)C)c4ccccc4n3)CC2)cc1` [compound 811], above 200 nM; with `CN(C)c1nc(N[C@H]2CC[C@@H](NC(=O)Nc3c(Cl)cc(Cl)cc3Cl)CC2)nc2ccccc12` [compound 63, N-(cis-4-{[4-(dimethylamino)quinazolin-2-yl]amino}cyclohexyl)-N′-(2,4,6-trichlorophenyl)urea], below 50 nM.

Staying with this assay, now noted: class by percent of control at 10^−7 M or by IC50; read-out: class.
Take `CN(C)c1nc(N[C@H]2CC[C@@H](C(=O)NCc3ccc(Cl)cc3Cl)CC2)nc2cc(F)c(F)cc12` [Example 1000, cis-N-(2,4-dichlorobenzyl)-4-{[4-(dimethylamino)-6,7-difluoroquinazolin-2-yl]amino}cyclohexanecarboxamide]: the IC50 is below 50 nM. Same read-out and setting: with `CN(C)c1nc(N[C@H]2CC[C@@H](NC(=O)Nc3ccccc3Cl)CC2)nc2ccccc12` [Example 1011, N-(2-chlorophenyl)-N′-(cis-4-{[4-(dimethylamino)quinazolin-2-yl]amino}cyclohexyl)urea] the figure was 50 to 200 nM; with `CC(NC(=O)[C@H]1CC[C@@H](Nc2nc(N(C)C)c3ccccc3n2)CC1)c1ccc(F)cc1` (relative stereo) [Example 1138, cis-4-{[4-(dimethylamino)quinazolin-2-yl]amino}-N-[1-(4-fluorophenyl)ethyl]cyclohexanecarboxamide], below 50 nM. Turning to `CN(C)c1nc(N[C@H]2CC[C@@H](NC(=O)C(O)c3cc(F)ccc3F)CC2)nc2ccccc12` (relative stereo) [Example 1115, 2-(2,5-difluorophenyl)-N-(cis-4-{[4-(dimethylamino)quinazolin-2-yl]amino}cyclohexyl)-2-hydroxyacetamide], the IC50 fell in the range of 50 to 200 nM.
